Measured values published in US7888355B2, “Compositions and methods for inhibiting growth and metastasis of melanoma” (Burnham Institute for Medical Research, priority 2007, dated 2011).

Legend:
Format in all cases: cell-based, mouse
[1] = system: NF-κB transcriptional activity; assay: 2-NFκ-B-luciferase reporter assay in SW1 cells; conditions: 8 h
Protocol: Constructs and inhibitors. An ATF2 peptide (aa 51-100) was cloned into HA-tagged pcDNA3 vector as previously described (Bhoumik et al., Cancer Res 64:8222-30, 2004). 5×Jun2tk-Luc (marker for ATF2 transcriptional activities), 5×TRE-tk-Luc (marker for AP1/c-Jun transcriptional activities) and 2×NF-B-Luc were previously described (Bhoumik et al., J Clin Invest 110:643-50, 2002). Pharmacological inhibitor of JNK (SP600125) was purchased (EMD biosciences) and added (5 μM) to cultured cells as indicated in Results.
Transcriptional analysis. Transient transfection of different reporter constructs into melanoma cells was performed using LIPOFECTAMINE PLUS transfection reagent (Invitrogen). Luciferase activity was determined as previously described (Bhoumik et al., PNAS 101:4222-7, 2004).
To assess whether CSL may affect the transcriptional activities of genes other than ATF2 and c-Jun, possible changes in transcriptional activities of NF-κB were monitored. Transcriptional activation of NFκ-B was assessed using the 2-NFκ-B-luciferase assay. Briefly, SW1 cells were transfected with the 2-NFκ-B-luciferase plasmid and 24 h later, cells were treated with the indicated concentrations of AIGA or CSL for 8 h before proteins were prepared and level of luciferase activity was measured. ATF250-100 peptide was used as a positive control. Data shown represent results from 2 experiments. […]

phosphorylation of c-Jun = assay: Western blot for c-Jun phosphorylation in SW1 cells; conditions: AIGA 0.5 or 2.0 μM, CSL 0.5 or 1.0 μM, 20 h
Protocol: (§1) Immunoblot analysis. Proteins prepared from cells at the indicated time points using RIPA buffer and 75 μg were separated on SDS-PAGE followed by immunoblot analysis using the antibodies indicated. Antibodies used were as follows: anti-JNK (Santa Cruz), phospho-JNK (Promega Corp.; Madison, Wis.), phospho c-Jun (Cell Signaling Technology, Inc.; Danvers, Mass.), c-Jun (Santa Cruz Biotechnology, Inc.; Santa Cruz, Calif.) and Caspase 8 (BD Biosciences; San Jose, Calif.).
The activation of JNK by both compounds was confirmed upon analysis of its substrate c-Jun. SW1 cells were pretreated with the JNK inhibitor SP600125 followed by addition of AIGA (0.5 μM or 2.0 μM) or CSL (0.5 μM or 1.0 μM) for 20 h. Total protein extracts were used to determine the phosphorylation of c-Jun.

caspase 8 = assay: Caspase 8 immunoblot in SW1 cells; conditions: 0.5 μM AIGA, 0.5 or 1.0 μM CSL, 24 hours
Protocol: (§2) Mitochondrial activity and apoptosis. Cells were exposed to the chemicals for 12-48 hours as indicated in Results. To measure changes in mitochondrial activity reflective of general cell viability, the ATPLITE ATP detection assay was used according to the manufacturer's recommendations (Perkin Elmer). Apoptosis analysis was performed by flow cytometry of PI-stained cells. The percentage of cells to the left of the diploid G0/1 peak, characteristic of hypodiploid cells that have partially lost DNA, was calculated as percentage of apoptotic cells (Bhoumik et al., PNAS 101:4222-7, 2004). Analysis of changes in Caspase 8 expression pattern was performed using immunoblot analysis.
Immunoblot analysis. Proteins prepared from cells at the indicated time points using RIPA buffer and 75 μg were separated on SDS-PAGE followed by immunoblot analysis using the antibodies indicated. […]
The finding that CSL and AIGA reduced cell viability in melanoma was made using the ATPLITE assay, which monitors the degree of mitochondrial ATP release, a marker for mitochondrial activity. […] Immunoblot analysis using caspase 8 antibody monitored full length and cleaved forms (active) of caspase 8. β-actin was used as a loading control.

SW1 melanoma cells = assay: Apoptosis by FACS of PI-stained SW1 cells; conditions: 48 h
Protocol: as §2
The finding that CSL and AIGA reduced cell viability in melanoma was made using the ATPLITE assay, which monitors the degree of mitochondrial ATP release, a marker for mitochondrial activity. To directly assess possible changes in the apoptosis of melanoma cells following their exposure to CSL or AIGA, FACS analysis of the melanoma cells was performed 48 h after treatment. […] Treatment with 1 μM AIGA caused 15% apoptosis in these melanoma cultures (FIG. 4a). Treatment with CSL caused 13% apoptosis at a dose of 0.5 μM and 35% apoptosis at a dose of 1 μM (FIG. 4b). Consistent with these finding is the activation of caspases 8, a classic marker for apoptosis, which was observed upon addition of these compounds, by Western blot analysis. SW1 cells were treated with 0.5 μM AIGA, 0.5 μM CSL, 1.0 μM CSL for 24 hours. Staurosporin was used as a positive control. Immunoblot analysis using caspase 8 antibody monitored full length and cleaved forms (active) of caspase 8. β-actin was used as a loading control.

[2] = system: JNK phosphorylation on residues 183/185; assay: Western blot for JNK phosphorylation in SW1 cells; conditions: 0.5, 1.0, 2.0 μM
Protocol: as §1
Thus, the two compounds were evaluated to determine if they require JNK activity for their effects on melanoma cells. To this end, the ability of AIGA or CSL to affect the viability of melanoma cells in the presence of a JNK inhibitor was tested. SW1 cells, with or without a 30-minute pretreatment with the JNK inhibitor SP600125 (10 μM), were contacted with AIGA or CSL at the indicated concentrations for 20 h. ATP levels were used to measure the cell viability using the ATPLITE kit. […] To assess whether these compounds affect JNK activity, changes in JNK phosphorylation on residues 183/185, which are required for its kinase activity, were monitored. […] Total level of JNK was analyzed in parallel. […]

Structure (SMILES)	NF-κB transcriptional activity [1]	c-Jun phosphorylation (phosphorylation of c-Jun)	cleaved (active) forms of caspase 8 (caspase 8)	% apoptosis of SW1 melanoma cells (SW1 melanoma cells; 1 μM)	phosphorylation of JNK on residues 183/185 [2]	% apoptosis of SW1 melanoma cells (SW1 melanoma cells; 0.5 μM)
CC(=O)Oc1c2c(c(CC=C(C)C)c3c1C(=O)C1=C[C@@H]4CC5C(C)(C)OC(C/C=C(\C)C(=O)O)(C4=O)[C@@]15O3)OC(C)(CCC=C(C)C)C=C2 (some centres unmarked) [AIGA, Acetyl isogambogic acid]	dose-dependent inhibition	efficiently induced c-Jun phosphorylation	increase in intensity of the cleaved forms caspase 8	15%	induced phosphorylation of JNK	–
CC1=C(O)C(=O)C=C2C1=CC=C1[C@@]2(C)CC[C@@]2(C)[C@@H]3C[C@](C)(C(=O)O)CC[C@]3(C)CC[C@]12C [Celastrol]	dose-dependent inhibition	efficiently induced c-Jun phosphorylation, with CSL being more potent	increase in intensity of the cleaved forms caspase 8	35%	induced phosphorylation of JNK	13%
